Assay results from patent US20040147788A1, “Stilbene derivatives and their use as aryl hydrocarbon receptor antagonistic ligands” (priority 2002, published 2004).
Values joined by “and” are separate entries in the source; they are usually repeats but may differ in a detail not shown here. Equal values may be shown once.

How the values were obtained:
ER = target: T1, ER (Homo sapiens, UniProt P03372); assay: ER-mediated transactivation, ERE-driven Luciferase reporter stable cell line (MCF-7-Luc); as to ER T.A. (transcriptional activity): key: Ago: agonist; N.M.: not measurable; format: cell-based; conditions: for ER TA (transcriptional activity): cis-stilbenes; for ER T.A. (transcriptional activity): trans-stilbenes
T1 construct: stably transfecting MCF-7 cells with the ERE-globin-tk-luc-SV-Neo plasmid; endogenous in cells; host or cells: MCF-7-Luc (MCF-7 stably transfected with ERE-globin-tk-luc-SV-Neo)
T1 sequence (P03372 1-595): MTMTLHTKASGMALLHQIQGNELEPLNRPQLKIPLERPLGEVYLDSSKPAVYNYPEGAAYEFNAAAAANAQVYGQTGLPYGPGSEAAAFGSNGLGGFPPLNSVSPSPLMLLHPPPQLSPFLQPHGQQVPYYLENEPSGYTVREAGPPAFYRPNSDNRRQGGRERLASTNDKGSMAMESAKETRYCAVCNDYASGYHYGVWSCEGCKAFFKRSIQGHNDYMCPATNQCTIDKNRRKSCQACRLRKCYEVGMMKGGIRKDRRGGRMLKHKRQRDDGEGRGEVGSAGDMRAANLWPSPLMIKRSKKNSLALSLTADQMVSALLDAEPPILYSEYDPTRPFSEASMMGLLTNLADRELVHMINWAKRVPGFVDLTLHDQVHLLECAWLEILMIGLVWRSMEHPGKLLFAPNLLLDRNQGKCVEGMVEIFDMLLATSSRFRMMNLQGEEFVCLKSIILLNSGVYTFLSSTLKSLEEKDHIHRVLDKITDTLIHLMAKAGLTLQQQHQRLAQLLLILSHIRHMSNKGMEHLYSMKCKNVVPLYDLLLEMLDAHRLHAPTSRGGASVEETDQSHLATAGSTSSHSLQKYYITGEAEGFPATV
Description: The human adenocarcinoma breast cell line MCF-7 was obtained from the American Tissue Culture Collection (Rockville, USA). The cells were established by stably transfecting MCF-7 cells with the ERE-globin-tk-luc-SV-Neo plasmid and thus expressed luciferase in an estrogen dependent manner MCF-7-Luc. […] Cells were incubated at 37° C. in a humidified 5% CO2 incubator. For experiments, cells were grown for 5 days in phenol red-free medium, containing 5% dextran-coated charcoal treated FCS (DCC-FCS). Medium was changed after 2 days. At day 5, cells were treated or not with compounds. Compounds were dissolved in ethanol.
For each condition, 15.103 cells were seeded per well in 12-well plates and treated, as described above, during 16 hours in a final volume of 0.5 mL. At the end of the treatment, cells were washed with PBS and lysed in 150 μl of lysis buffer (Promega, Charbonnieres, France). Luciferase activity was measured using the luciferase assay reagent (Promega), according to the manufacturer's instructions. Protein concentrations were measured using Bradford technique, to normalize the luciferase activity data. For each condition, average luciferase activity was calculated from the data of 3 independent wells.

[1] = target: T2, Aryl Hydrocarbon Receptor (AhR) (Oryctolagus cuniculus, UniProt O02747); assay: Ligand binding competition assay (Aryl Hydrocarbon Receptor), [3H]TCDD displacement; parameters: species or system female New Zealand rabbit (liver cytosol); conditions: for AhR RBA (relative binding affinity): resveratrol = 1
T2 construct: from tissue; host or cells: female New Zealand rabbit liver cytosol
T2 sequence (O02747 1-847): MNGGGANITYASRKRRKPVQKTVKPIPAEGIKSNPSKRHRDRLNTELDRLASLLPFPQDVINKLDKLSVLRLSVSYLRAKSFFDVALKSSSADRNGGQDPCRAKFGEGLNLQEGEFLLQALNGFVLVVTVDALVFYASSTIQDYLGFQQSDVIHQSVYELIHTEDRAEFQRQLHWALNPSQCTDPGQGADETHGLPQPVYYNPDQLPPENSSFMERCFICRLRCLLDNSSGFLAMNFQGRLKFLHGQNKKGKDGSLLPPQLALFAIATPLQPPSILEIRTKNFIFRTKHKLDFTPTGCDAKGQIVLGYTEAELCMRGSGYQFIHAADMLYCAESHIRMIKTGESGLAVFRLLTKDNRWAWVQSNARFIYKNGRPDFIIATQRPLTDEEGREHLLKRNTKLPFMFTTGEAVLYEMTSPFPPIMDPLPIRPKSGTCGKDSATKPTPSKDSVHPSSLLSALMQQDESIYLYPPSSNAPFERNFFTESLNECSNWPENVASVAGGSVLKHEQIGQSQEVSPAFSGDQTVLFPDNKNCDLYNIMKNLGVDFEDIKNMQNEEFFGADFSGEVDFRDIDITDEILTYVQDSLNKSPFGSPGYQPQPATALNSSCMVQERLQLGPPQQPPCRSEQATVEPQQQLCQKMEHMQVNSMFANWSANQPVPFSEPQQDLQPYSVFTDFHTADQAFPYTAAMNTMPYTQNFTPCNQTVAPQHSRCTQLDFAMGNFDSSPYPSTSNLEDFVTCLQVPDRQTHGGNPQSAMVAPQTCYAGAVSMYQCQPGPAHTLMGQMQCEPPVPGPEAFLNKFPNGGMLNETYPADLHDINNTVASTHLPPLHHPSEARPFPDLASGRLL
Description: Ligand binding competition assay (Aryl Hydrocarbon Receptor)
Experiments were conducted exactly as previously described by Savouret et al., (3). Briefly, binding competition was performed using female New Zealand rabbit liver cytosol as the receptor source. The cytosol was prepared at 4° C. in Hepes 20 mM pH 7.6, EDTA 1.5 mM, glycerol 10%, β-mercapto-ethanol 10 mM, with Complete protease cocktail (Roche, Meylan, France) by homogenisation in a Ultra-Turax homogenizer (Bioblock Scientific, Illkirch, France) followed with 20 strokes in a Dounce Homogenizer with the tight pestle. The homogenate was centrifuged 30 min at 20,000 g. The supernatant was centrifuged at 105,000 g for 65 min. The cytosol was aliquoted, snap-frozen in liquid nitrogen and kept at −80° C. Cytosol aliquotes (4.5 ml) were thawed on ice, diluted ten-fold in Hepes 20 mM pH 7.6, 5 mM CaCl2, containing Complete protease cocktail and 10 mM mercapto-ethanol, and recentrifuged 30 min. at 105,000 g. The cleared cytosol dilution was adjusted to 0.85 mg proteins/ml. 930 μl of diluted cytosol were preincubated with the desired amounts of unlabeled competitors in ethanol solutions for 1 hour at 4° C. Subsequently, 2,3,7,8-tetrachloro (1,6-3 H) dibenzo-p-dioxin (28 Ci/mmole) was added at 0.2 nM and incubation continued for 3 hours at 4° C. Non-displaceable binding was assessed by incubating the aliquotes with 70 μl of a 2% activated charcoal suspension in Hepes 20 mM pH 7.6 for 90 minutes at 4° C., followed by centrifugation at 15,000 g for 10 minutes. 500 μl of the supernatants were counted in 5 ml of Ultima Gold cocktail (Packard, Meridien, Conn.) in a Beckman liquid scintillation Counter (45% counting efficiency). Binding competition assays were repeated at least twice for each competitor and each point was performed in triplicate.

ER TA (transcriptional activity) (ER)	AhR RBA (relative binding affinity) ([1]; cis-stilbenes)	ER T.A. (transcriptional activity) (ER)	relative binding affinity (RBA) for AhR [1]	AhR RBA (relative binding affinity) ([1]; trans-stilbenes)	melting point	SMILES
N.M	13.0					COc1ccc(/C=C\c2cc(Cl)cc(Cl)c2)cc1 [Compound 5j, (Z)-1-(4-methoxyphenyl)-2-(3,5-dichlorophenyl)-ethene]
N.M	10.9					FC(F)(F)c1ccc(/C=C\c2cc(Cl)cc(Cl)c2)cc1 [Compound 5i, (Z)-1-(4-trifluoromethylphenyl)-2-(3,5-dichlorophenyl)-ethene]
N.M	2.6					Fc1ccc(/C=C\c2cc(F)cc(F)c2)cc1 [Compound 5d, (Z)-1-(4-fluorophenyl)-2-(3,5-difluorophenyl)-ethene]
N.M	1.7					COc1cc(/C=C\c2ccc(F)cc2)cc(OC)c1 [Compound 5f, (Z)-1-(4-fluorophenyl)-2-(3,5-dimethoxyphenyl)-ethene]
N.M	2.5					CCOc1ccc(/C=C\c2cc(OC)cc(OC)c2)cc1 [Compound 5g, (Z)-1-(4-ethoxyphenyl)-2-(3,5-dimethoxyphenyl)-ethene]
N.M	2.7					FC(F)(F)c1ccc(/C=C\c2cc(C(F)(F)F)cc(C(F)(F)F)c2)cc1 [Compound 5e, (Z)-1-(4-trifluoromethylphenyl)-2-(3,5-ditrifluoromethylphenyl)-ethene]

Continued, molecule first:

SMILES	ER TA (transcriptional activity) (ER)	AhR RBA (relative binding affinity) ([1]; cis-stilbenes)	ER T.A. (transcriptional activity) (ER)	relative binding affinity (RBA) for AhR [1]	AhR RBA (relative binding affinity) ([1]; trans-stilbenes)	melting point
Clc1ccc(/C=C/c2cc(Cl)cc(Cl)c2)cc1 [Compound 4b, (E)-1-(4-chlorophenyl)-2-(3,5-dichlorophenyl)-ethene]			N.M	130.0	130.0	
Fc1ccc(/C=C/c2cc(F)cc(F)c2)cc1 [Compound 4d, (E)-1-(4-fluorophenyl)-2-(3,5-difluorophenyl)-ethene]			N.M		39.1	47 to 48 °C and 47 °C
COc1ccc(/C=C/c2cc(OC)cc(OC)c2)cc1 [Compound 4a, (E)-1-(4-methoxyphenyl)-2-(3,5-dimethoxyphenyl)-ethene]			Ago		21.0	
COc1ccc(/C=C/c2cc(Cl)cc(Cl)c2)cc1 [Compound 4j, (E)-1-(4-methoxyphenyl)-2-(3,5-dichlorophenyl)-ethene]			N.M.	112.0	112.0	62 to 64 °C
CCOc1ccc(/C=C/c2cc(OC)cc(OC)c2)cc1 [Compound 4g, (E)-1-(4-ethoxyphenyl)-2-(3,5-dimethoxyphenyl)-ethene]			N.M.		39.8	54 to 55 °C
COc1ccc(/C=C\c2cc(OC)cc(OC)c2)cc1 [Compound 5a, (Z)-1-(4-methoxyphenyl)-2-(3,5-dimethoxyphenyl)-ethene]	Ago	2.1				
COc1ccc(/C=C/c2cc(F)cc(F)c2)cc1 [Compound 4c, (E)-1-(4-methoxyphenyl)-2-(3,5-difluorophenyl)-ethene]			N.M		17.5	108 to 110 °C
COc1ccc(/C=C\c2cc(F)cc(F)c2)cc1 [Compound 5c, (Z)-1-(4-methoxyphenyl)-2-(3,5-difluorophenyl)-ethene]	N.M	7.2				
FC(F)(F)c1ccc(/C=C/c2cc(C(F)(F)F)cc(C(F)(F)F)c2)cc1 [Compound 4e, (E)-1-(4-trifluoromethylphenyl)-2-(3,5-ditrifluoromethylphenyl)-ethene]			N.M	52.1	52.1	99 to 100 °C
FC(F)(F)c1ccc(/C=C/c2cc(Cl)cc(Cl)c2)cc1 [Compound 4i, (E)-1-(4-trifluoromethylphenyl)-2-(3,5-dichlorophenyl)-ethene]			N.M.		791.0	98 to 100 °C
CCCCOc1ccc(/C=C/c2cc(OC)cc(OC)c2)cc1 [Compound 4h, (E)-1-(4-butoxyphenyl)-2-(3,5-dimethoxyphenyl)-ethene]			N.M.		8.1	54 to 56 °C
COc1cc(/C=C/c2ccc(F)cc2)cc(OC)c1 [Compound 4f, (E)-1-(4-fluorophenyl)-2-(3,5-dimethoxyphenyl)-ethene]			N.M		32.1	
Clc1ccc(/C=C\c2cc(Cl)cc(Cl)c2)cc1 [Compound 5b, (Z)-1-(4-chlorophenyl)-2-(3,5-dichlorophenyl)-ethene]	N.M	12.4				
CCCCOc1ccc(/C=C\c2cc(OC)cc(OC)c2)cc1 [Compound 5h, (Z)-1-(4-butoxyphenyl)-2-(3,5-dimethoxyphenyl)-ethene]	N.M	3.7				
